Among the test systems are NCI-H23; MCF7; HCT-116; HCC 2998; HCT-15; UACC-62; SK-MEL-28; Malme-3M; OVCAR-8; SW-620; NCI-H226; SK-OV-3; Hs-578T; DU-145; U-251; SN12C; MDA-N; HT-29; CAKI-1; NCI-H522.
Holding throughout (assay): DTP human tumour cell line panel, 48 h

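Grown in 96-well plates, cells were treated for 48 hours with each compound at five concentrations. Insufficient inhibition: endpoint recorded as highest concentration tested. GI50 marks 50% less growth.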 Activity calls are given as the source filed them. Cut-off read from the data, not from the text of the source: active = GI50 up to about 1.1 µM and inactive = higher.

In the case of `O=C(ON=c1c2ccccc2ccc2ccccc12)c1cc([N+](=O)[O-])cc([N+](=O)[O-])c1`, the GI50 with NCI-H23 is > 100 µM (inactive); in the test on MCF7, 65 µM (inactive); in the test on HCT-116 it was 87.3 µM (inactive); in the test with HCC 2998, 75.2 µM (inactive); with HCT-15 it was 53 µM; in the test on UACC-62, 63.4 µM (inactive). For the same compound, the GI50 is > 100 µM (inactive) in the test on SK-MEL-28; 16.8 µM (inactive) with Malme-3M; 94.8 µM (inactive) in the test on OVCAR-8; > 100 µM (inactive) with SW-620; > 100 µM (inactive) with NCI-H226; > 100 µM (inactive) in the test on SK-OV-3. Further, the GI50 with Hs-578T was 76.7 µM (inactive); in the test with DU-145, 97.3 µM (inactive); with U-251, 70.6 µM (inactive); in the test on SN12C, 67.1 µM (inactive); in the test on MDA-N, 83.8 µM (inactive); in the test on HT-29 it was 94.4 µM (inactive).

For `C=CC(C)(C)/C=C/c1ccc(O)cc1`, the GI50 with NCI-H23 is 31.8 µM (inactive); in the test on MCF7, 35.7 µM (inactive); with HCT-116, 31.3 µM (inactive); in the test on HCC 2998, 27.9 µM (inactive); in the test with CAKI-1, 44.7 µM (inactive); in the test with HCT-15, 39.1 µM. Besides, the GI50 in the test on UACC-62 is 42.7 µM (inactive); with SK-MEL-28 it was 35.9 µM (inactive); in the test with Malme-3M, 36.8 µM (inactive); with OVCAR-8 it was 39.7 µM (inactive); in the test with SW-620, 33.3 µM (inactive); in the test with SK-OV-3, 49.7 µM (inactive). Further, the GI50 in the test on Hs-578T is 39.2 µM (inactive); with DU-145 it was 40.4 µM (inactive); with NCI-H522, 34.4 µM (inactive); in the test on U-251 it was 30 µM (inactive); with SN12C it was 34.5 µM (inactive); with MDA-N, 35 µM (inactive). Further, in the test with HT-29, the GI50 is 38.2 µM (inactive).

Regarding `CN(C)c1ccc(C(c2ccc(Cl)cc2)c2ccc(N(C)C)cc2)cc1`, the GI50 in the test on NCI-H23 was > 100 µM (inactive); in the test on MCF7, 49.1 µM (inactive); with HCT-116, > 100 µM (inactive); in the test on HCC 2998, 69 µM (inactive); in the test on CAKI-1, > 100 µM (inactive); in the test on HCT-15, over 100 µM. For the same compound, the GI50 in the test on UACC-62 is > 100 µM (inactive); with SK-MEL-28, > 100 µM (inactive); in the test on Malme-3M, 30.1 µM (inactive); in the test on OVCAR-8, 99.1 µM (inactive); in the test with SW-620, > 100 µM (inactive); with SK-OV-3, > 100 µM (inactive). In addition, the GI50 in the test with Hs-578T was 90.6 µM (inactive); with DU-145 it was > 100 µM (inactive); with NCI-H522, 28.5 µM (inactive); in the test with U-251, > 100 µM (inactive); in the test with SN12C, > 100 µM (inactive); in the test with MDA-N, 82.8 µM (inactive). Also, the GI50 with HT-29 is > 100 µM (inactive).

For the compound `COc1ccc(C2C3=C(N=C4SC(C(C)=O)=C(C)N42)c2ccccc2CC3)cc1` (centres undefined), the GI50 in the test with NCI-H23 is 80 µM (inactive); in the test with MCF7, 92.7 µM (inactive); in the test with HCT-116 it was 15 µM (inactive); in the test on HCC 2998, 42.4 µM (inactive); in the test with HCT-15, over 100 µM; in the test on UACC-62, 45.7 µM (inactive). Further, the GI50 in the test with SK-MEL-28 was > 100 µM (inactive); in the test on OVCAR-8, > 100 µM (inactive); with SW-620, > 100 µM (inactive); with NCI-H226, 18.7 µM (inactive); in the test on SK-OV-3 it was > 100 µM (inactive); in the test on Hs-578T it was 69 µM (inactive). Also, the GI50 with DU-145 is > 100 µM (inactive); in the test with U-251, 57.9 µM (inactive); in the test with SN12C, > 100 µM (inactive); with MDA-N, 21.1 µM (inactive); with HT-29, 6.52 µM (inactive).

Take `Cc1ccc2nc(-c3ccc(-c4nc5ccc(C)cc5o4)c(O)c3)oc2c1`: the GI50 with NCI-H23 is > 100 µM (inactive); in the test on MCF7, > 100 µM (inactive); with HCT-116 it was > 100 µM (inactive); in the test on HCC 2998, > 100 µM (inactive); with HCT-15 it was over 100 µM; in the test with UACC-62, > 100 µM (inactive). Further, the GI50 in the test on SK-MEL-28, with OVCAR-8, in the test on SW-620, with NCI-H226, in the test on SK-OV-3 and in the test with Hs-578T was > 100 µM (inactive) in each case. Moreover, the GI50 with DU-145, with U-251, in the test on SN12C and with MDA-N was > 100 µM (inactive) each time.

On to `CC(C)C1OC2(C)OC(=N)C1(C#N)C(C#N)(C#N)C2C` (centres undefined), for which the GI50 in the test with NCI-H23 was 30.6 µM (inactive); with MCF7 it was 18.7 µM (inactive); with HCT-116, 27.2 µM (inactive); with HCC 2998, 13.7 µM (inactive); with CAKI-1, 10.9 µM (inactive); with HCT-15, 12.8 µM. The GI50 with UACC-62 is 27.6 µM (inactive); in the test with SK-MEL-28 it was 37.1 µM (inactive); in the test on Malme-3M it was 19.6 µM (inactive); in the test with OVCAR-8 it was 25.8 µM (inactive); in the test with SW-620, 26.6 µM (inactive); in the test with NCI-H226, > 100 µM (inactive). Also, the GI50 is > 100 µM (inactive) with SK-OV-3; 24.3 µM (inactive) in the test on Hs-578T; 28.4 µM (inactive) with DU-145; 24.2 µM (inactive) with U-251; 13.9 µM (inactive) with SN12C; 15.2 µM (inactive) in the test with MDA-N. In addition, the GI50 in the test on HT-29 is 16.3 µM (inactive).

With `CC1(C)O[C@H]2Cn3c(c(C#N)c4ccccc43)[C@H]2O1`, the GI50 is > 100 µM (inactive) in the test on NCI-H23; > 100 µM (inactive) in the test with MCF7; > 100 µM (inactive) in the test on HCT-116; > 100 µM (inactive) with HCC 2998; 85.1 µM (inactive) in the test on CAKI-1; over 100 µM in the test on HCT-15. Further, the GI50 in the test on UACC-62, in the test on SK-MEL-28, in the test with Malme-3M, in the test with SK-OV-3, in the test on Hs-578T and in the test on DU-145 was > 100 µM (inactive) throughout. Besides, the GI50 in the test on NCI-H522, in the test on U-251, with SN12C, in the test with MDA-N and in the test on HT-29 was > 100 µM (inactive) in each case.

For the compound `CCN(CC)C(=O)N[C@@H](CC(C)C)C(=O)NC`, the GI50 in the test with NCI-H23 was > 100 µM (inactive); in the test on MCF7, 49.4 µM (inactive); with HCT-116, > 100 µM (inactive); in the test on HCC 2998, > 100 µM (inactive); in the test with CAKI-1, > 100 µM (inactive); in the test on HCT-15, over 100 µM. The GI50 in the test on UACC-62, with SK-MEL-28, with Malme-3M, in the test with OVCAR-8, with SW-620 and in the test on SK-OV-3 was > 100 µM (inactive) throughout. For the same compound, the GI50 with Hs-578T, in the test on DU-145, in the test on NCI-H522, in the test on U-251, with SN12C and in the test with MDA-N was > 100 µM (inactive) throughout. Besides, the GI50 in the test with HT-29 is > 100 µM (inactive).

Values taken from ChEMBL document CHEMBL1201862, “PubChem BioAssay data set” (2004).
